By IC50 is commonly meant the point on the concentration scale where inhibition reaches its midpoint.

Structures can show the parent of a compound that is named as a salt.

For the assay, the target named is T1, human B1 (Homo sapiens, UniProt P46663).
T1 construct: host or cells: CHO-K1
T1 sequence (P46663 1-353): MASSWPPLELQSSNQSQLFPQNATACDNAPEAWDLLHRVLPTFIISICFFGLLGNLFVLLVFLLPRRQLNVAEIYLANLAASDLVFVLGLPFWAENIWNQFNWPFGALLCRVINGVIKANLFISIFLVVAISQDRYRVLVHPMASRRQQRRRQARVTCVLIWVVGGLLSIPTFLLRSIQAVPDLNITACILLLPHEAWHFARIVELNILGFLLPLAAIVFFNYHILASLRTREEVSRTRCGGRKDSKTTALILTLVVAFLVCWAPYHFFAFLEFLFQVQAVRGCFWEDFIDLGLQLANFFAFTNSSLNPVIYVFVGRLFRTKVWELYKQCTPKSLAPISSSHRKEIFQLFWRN
The assay is described as follows: Calcium flux assay for Bradykinin B1 antagonist, CHO-K1 cell line expressing human B1. In kind it is cell-based. To be noted: CHO-K1 cells expressing human B1, agonist Lys-(Des-Arg)-Bradykinin, read-out: Potency (IC50 value against human B1). In short, it runs like this:
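CHO-K1 cells expressing human B1, loaded with 5 μM Fluo-4AM (2 h, 37° C) in HEPES buffer pH 7.4 with probenecid and 0.1% BSA, were preincubated 30 min at 25° C with compound (8 concentrations, triplicate, 1% DMSO) before B1 agonist addition. Ca2+ fluorescence monitored at 538 nm; background-normalized integrated values plotted against log antagonist concentration.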
For orientation: Calcium assays in cells follow changes in intracellular calcium, usually with a dye or a luminescent sensor.
For `COc1cc(C)c(S(=O)(=O)N(Cc2cc(C(=O)N3CCN(CC4CCN(C)CC4)CC3)co2)C2CC2)c(C)c1` [Ex 89, N-Cyclopropyl-4-methoxy-2,6-dimethyl-N-{[4-({4-[(1-methylpiperidin-4-yl)methyl]piperazin-1-yl}carbonyl)furan-2-yl]methyl}benzenesulfonamide], the IC50 was under 0.01 µM. Under `COc1cc(C)c(S(=O)(=O)N(C)Cc2cc(C(=O)NC(C)c3ccc(CN4CCCC4)cc3)co2)c(C)c1` (stereo not shown) [Ex 90, 5-({[(4-Methoxy-2,6-dimethylphenyl)sulfonyl](methyl)amino}methyl)-N-{1-[4-(pyrrolidin-1-ylmethyl)phenyl]ethyl}furan-3-carboxamide] stands 0.1 to 1 µM. Next, `COc1cc(C)c(S(=O)(=O)N(C)Cc2cc(C(=O)NC(C)c3ccc(CN4CCC(O)C4)cc3)co2)c(C)c1` (stereo not shown) [Ex 91, N-(1-{4-[(3-Hydroxypyrrolidin-1-yl)methyl]phenyl}ethyl)-5-({[(4-methoxy-2,6-dimethylphenyl)sulfonyl](methyl)amino}methyl)furan-3-carboxamide]: 0.1 to 1 µM; `COc1cc(C)c(S(=O)(=O)N(C)Cc2cc(C(=O)NCCc3ccc(CN4CC[C@H](N(C)C)C4)cc3)co2)c(C)c1` [Ex 92, N-[2-(4-{[(3S)-3-(Dimethylamino)pyrrolidin-1-yl]methyl}phenyl)ethyl]-5-({[(4-methoxy-2,6-dimethylphenyl)sulfonyl](methyl)amino}methyl)furan-3-carboxamide, trifluoroacetate]: 0.1 to 1 µM; `COc1cc(C)c(S(=O)(=O)N(C)Cc2cc(C(=O)NCc3ccc(C4=NCC(C)(C)N4)cc3)co2)c(C)c1` [Ex 93, N-[4-(5,5-Dimethyl-4,5-dihydro-1H-imidazol-2-yl)benzyl]-5-({[(4-methoxy-2,6-dimethylphenyl)sulfonyl](methyl)amino}methyl)furan-3-carboxamide trifluoroacetate]: 0.01 to 0.1 µM. Under `COc1cc(C)c(S(=O)(=O)N(C)Cc2cc(C(=O)NCCc3ccc(C4=NCC(C)(C)N4)cc3)co2)c(C)c1` [Ex 94, N-{2-[4-(5,5-Dimethyl-4,5-dihydro-1H-imidazol-2-yl)phenyl]ethyl}-5-({[(4-methoxy-2,6-dimethylphenyl)sulfonyl](methyl)amino}methyl)furan-3-carboxamide trifluoroacetate] stands under 0.01 µM; under `COc1cc(C)c(S(=O)(=O)N(C)Cc2cc(C(=O)N3CCCC(c4ccc(CN5CCCC5)cc4)C3)co2)c(C)c1` (stereo not shown) [Ex 95, 4-Methoxy-N,2,6-trimethyl-N-{[4-({3-[4-(pyrrolidin-1-ylmethyl)phenyl]piperidin-1-yl}carbonyl)furan-2-yl]methyl}benzenesulfonamide trifluoroacetamide], 0.1 to 1 µM.

Take `COc1cc(C)c(S(=O)(=O)N(C)Cc2cc(C(=O)NCc3ccc(CNCc4ccncc4)cc3)co2)c(C)c1` [Ex 96, 5-({[(4-Methoxy-2,6-dimethylphenyl)sulfonyl](methyl)amino}methyl)-N-(4-{[(pyridin-4-ylmethyl)amino]methyl}benzyl)furan-3-carboxamide trifluoroacetate]: the IC50 is 0.1 to 1 µM. In the case of `COc1cc(C)c(S(=O)(=O)N(C)Cc2cc(C(=O)NCc3ccc(CN4CCC4)cc3)co2)c(C)c1` [Ex 97, N-[4-(Azetidin-1-ylmethyl)benzyl]-5-({[(4-methoxy-2,6-dimethylphenyl)sulfonyl](methyl)amino}methyl)furan-3-carboxamide trifluoroacetate], the IC50 fell in the range of 0.01 to 0.1 µM.

In the case of `COc1cc(C)c(S(=O)(=O)N(C)Cc2cc(C(=O)N(C)CCc3ccc(C4=NCCN4C)cc3)co2)c(C)c1` [Ex 98, 5-({[(4-Methoxy-2,6-dimethylphenyl)sulfonyl](methyl)amino}methyl)-N-methyl-N-{2-[4-(1-methyl-4,5-dihydro-1H-imidazol-2-yl)phenyl]ethyl}furan-3-carboxamide trifluoroacetamide], the IC50 lay in the range of 0.1 to 1 µM. With `COc1cc(C)c(S(=O)(=O)N(C)Cc2cc(C(=O)NCc3ccc(CN4CCCCC4C)cc3)co2)c(C)c1` (stereo not shown) [Ex 99, 5-({[(4-Methoxy-2,6-dimethylphenyl)sulfonyl](methyl)amino}methyl)-N-{4-[(2-methylpiperidin-1-yl)methyl]benzyl}furan-3-carboxamide trifluoroacetate], the IC50 is 0.1 to 1 µM.

For the compound `COc1cc(C)c(S(=O)(=O)N(C)Cc2cc(C(=O)NCc3ccc(CN4CCCCC4)cc3)co2)c(C)c1` [Ex 100, 5-({[(4-Methoxy-2,6-dimethylphenyl)sulfonyl](methyl)amino}methyl)-N-[4-(piperidin-1-ylmethyl)benzyl]furan-3-carboxamide trifluoroacetate], the IC50 lay in the range of 0.1 to 1 µM. Next, `COc1cc(C)c(S(=O)(=O)N(C)Cc2cc(C(=O)NCc3ccc(CN4CCCCCC4)cc3)co2)c(C)c1` [Ex 101, N-[4-(Azepan-1-ylmethyl)benzyl]-5-({[(4-methoxy-2,6-dimethylphenyl)sulfonyl](methyl)amino}methyl)furan-3-carboxamide trifluoroacetate]: 0.1 to 1 µM. Under `CCN(Cc1cc(C(=O)N(C)Cc2ccc(CN3CCCC3)cc2)co1)S(=O)(=O)c1c(C)cc(OC)cc1C` [Ex 102, 5-({Ethyl[(4-methoxy-2,6-dimethylphenyl)sulfonyl]amino}methyl)-N-methyl-N-[4-(pyrrolidin-1-ylmethyl)benzyl]furan-3-carboxamide trifluoroacetate] stands 0.1 to 1 µM; under `CCN(Cc1cc(C(=O)N(C)Cc2ccc(C3=NCCN3)cc2)co1)S(=O)(=O)c1c(C)cc(OC)cc1C` [Ex 103, N-[4-(4,5-Dihydro-1H-imidazol-2-yl)benzyl]-5-({ethyl[(4-methoxy-2,6-dimethylphenyl)sulfonyl]amino}methyl)-N-methylfuran-3-carboxamide trifluoroacetate], 0.01 to 0.1 µM; under `CCN(Cc1cc(C(=O)NCCc2ccc(C3=NCCN3)cc2)co1)S(=O)(=O)c1c(C)cc(OC)cc1C` [Ex 104, N-{2-[4-(4,5-Dihydro-1H-imidazol-2-yl)phenyl]ethyl}-5-({ethyl[(4-methoxy-2,6-dimethylphenyl)sulfonyl]amino}methyl)furan-3-carboxamide trifluoroacetate], 0.01 to 0.1 µM. Under `COc1cc(C)c(S(=O)(=O)N(Cc2cc(C(=O)N3CCN(CC4CCN(C)CC4)CC3)co2)C2CC2)c(C)c1` [Ex 105, N-Cyclopropyl-4-methoxy-2,6-dimethyl-N-{[4-({4-[(1-methylpiperidin-4-yl)methyl]piperazin-1-yl}carbonyl)furan-2-yl]methyl}benzenesulfonamide trifluoroacetate] stands 0.01 to 0.1 µM; under `COc1cc(C)c(S(=O)(=O)N(Cc2cc(C(=O)N3CCN(CC4CCCN(C)C4)CC3)co2)C2CC2)c(C)c1` (stereo not shown) [Ex 106, N-Cyclopropyl-4-methoxy-2,6-dimethyl-N-{[4-({4-[(1-methylpiperidin-3-yl)methyl]piperazin-1-yl}carbonyl)furan-2-yl]methyl}benzenesulfonamide trifluoroacetate], 0.01 to 0.1 µM. For the compound `COc1cc(C)c(S(=O)(=O)N(Cc2cc(C(=O)N3CCN(C4CC5CCC(C4)N5C)CC3)co2)C2CC2)c(C)c1` (stereo not shown) [Ex 107, N-Cyclopropyl-4-methoxy-2,6-dimethyl-N-[(4-{[4-(8-methyl-8-azabicyclo[3.2.1]oct-3-yl)piperazin-1-yl]carbonyl}furan-2-yl)methyl]benzenesulfonamide trifluoroacetate], the IC50 is 0.01 to 0.1 µM.

For the origin of these results see US8623859B2, “Bradykinin B1 antagonists” (Evotec AG, priority 2008, dated 2014).
